These compounds were tested against T1, PDE10A2 (Homo sapiens, UniProt Q9Y233) (assay: PDE10A2 Scintillation Proximity Assay (SPA), [3H]-cGMP hydrolysis). Details: catalytic domain of human PDE10A2 (S449-D789), 0.25 nM enzyme, 50 nM cGMP + 50 nM [3H]-cGMP, 30 minutes at room temperature; read-out: PDE10A2 inhibition IC50.
T1 construct: residues serine 449 to aspartate 789; His6 (H6) with Gateway linker and thrombin cleavage site (N, cleaved yes); made in house; host or cells: E. coli BL21(DE3) pLysS
T1 sequence (Q9Y233 715-1055): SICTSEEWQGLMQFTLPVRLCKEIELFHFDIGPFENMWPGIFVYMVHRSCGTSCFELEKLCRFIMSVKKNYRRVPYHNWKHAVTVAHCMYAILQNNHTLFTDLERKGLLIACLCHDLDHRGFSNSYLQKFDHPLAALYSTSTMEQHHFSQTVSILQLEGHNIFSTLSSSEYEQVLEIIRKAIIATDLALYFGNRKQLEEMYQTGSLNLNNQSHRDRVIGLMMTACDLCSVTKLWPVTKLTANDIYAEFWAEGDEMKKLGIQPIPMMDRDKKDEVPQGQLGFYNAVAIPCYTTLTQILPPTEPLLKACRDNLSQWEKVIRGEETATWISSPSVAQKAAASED
Format: biochemical
Method: The following tests were carried out in order to determine the activity of the compounds of the present invention. PDE10 activity of the compounds of the present invention is determined using a Scintillation Proximity Assay (SPA)-based method similar to the one previously described (Fawcett, L. et al., ProcNatl Acad Sci USA (2000) 97(7):3702-3707).
PDE10A1 and PDE10A2 are two splice variants of PDE10A. There are these 2 splice variants known, which differ in the N-terminal part of the protein. The catalytic domains of PDE10A1 and PDE10A2 are identical. The assay for PDE10A2 described below is therefore also representative for PDE10A1 and also for PDE10A in general.
The PDE10A2 assay was performed in a two step procedure in 96-well micro titer plates. The reaction mixture of 80 μl contained 20 mM HEPES/10 mM MgCl2/[…] (pH 7.5), 50 nM cGMP (Sigma) and 50 nM [^3H]-cGMP (GE Healthcare), 0.25 nM PDE10A2 with or without a specific test compound. A range of concentrations of the potential inhibitor was used to generate data for calculating the concentration of inhibitor resulting in 50% of the effect (e.g. IC50, the concentration of the competitor inhibiting PDE10A2 activity 50%). Non-specific activity was tested without the enzyme. The reaction was initiated by addition of the substrate solution (cGMP and [^3H]-cGMP) and allowed to progress for 30 minutes at room temperature. The reaction was terminated by transferring 50 μl of the reaction mixture into an OptiPlate (Perkin Elmer) containing 25 μl of YSi-SPA scintillation beads (GE Healthcare) in 18 mM zinc sulphate solution (stop reagent). After 1 h under shaking, the plate was centrifuged one minute at 1000 rpm to allow beads to settle. Afterwards, radioactive counts were measured on a Perkin Elmer TopCount Scintillation plate reader.
The catalytic domain of human PDE10A2, residues serine 449 to aspartate 789, was amplified by PCR using cDNA (Origene) and the oligonucleotides 5′-GGGGACAAGTTTGT […]-3′ (with AttB1 recombination site in bold and thrombin protease cleavage site in italics) and 5′-[…]-3′ (with AttB2 recombination site in bold) which conferred Gateway recombination sites. The PCR product was used in a BP recombination reaction with pDONR221 to generate pENTR Thm-PDE10A2(S449-D789) which was DNA sequence verified and then used in an LR recombination reaction with a Gateway modified version of pET11a. The resulting expression vector, placT7.2H6-(gwl)-Thm-PDE10A2(S449-D789) was DNA sequence confirmed and transformed into E. coli strain BL21(DE3) pLysS and recombinant protein was produced in TB medium at 20° C. by induction to a final IPTG concentration of 0.5 mM at an optical density of 1.0 at 600 nm for 20 hours. About 30% of the protein was in the soluble fraction of the cell homogenate. The protein was purified using sequential chromatography on Ni-NTA and HiTrapQ/HiTrapS. After thrombin digest at room temperature a HiTrapChelating/HiTrap Benzamindin chromatography removed impurities, uncleaved protein and thrombin. Final purification of PDE10A2(S449-D789) was performed on a Superdex 75 size exclusion chromatography equilibrated with 25 mM HEPES pH 8.4, 0.15 M NaCl. The yield of pure protein was 2 mg/liter of culture volume is relatively low. The purity of the protein was >95%, monomeric and monodisperse as shown by SDS-PAGE, HPLC and analytical ultracentrifugation.

IC50 [nM] | SMILES
319 | N#Cc1cccc(-n2nccc2-c2nn(-c3ccncc3)ccc2=O)c1 [Example 3, 3-[5-(4-Oxo-1-pyridin-4-yl-1,4-dihydro-pyridazin-3-yl)-pyrazol-1-yl]-benzonitrile]
80 | O=c1ccn(-c2ccncc2)nc1-c1ccnn1-c1ccc2c(c1)OCCO2 [Example 15, 3-[2-(2,3-Dihydro-benzo[1,4]dioxin-6-yl)-2H-pyrazol-3-yl]-1-pyridin-4-yl-1H-pyridazin-4-one]
134 | Cc1cc(-n2ccc(=O)c(-c3ccnn3-c3cccc4ncccc34)n2)ccn1 [Example 83, 1-(2-Methyl-pyridin-4-yl)-3-(2-quinolin-5-yl-2H-pyrazol-3-yl)-1H-pyridazin-4-one]
663 | N#Cc1cc(-n2ccc(=O)c(-c3ccnn3-c3ccc4c(c3)OCCO4)n2)ccn1 [Example 43, 4-{3-[2-(2,3-Dihydro-benzo[1,4]dioxin-6-yl)-2H-pyrazol-3-yl]-4-oxo-4H-pyridazin-1-yl}-pyridine-2-carbonitrile]
7 | O=c1ccn(-c2ccc3ncccc3c2)nc1-c1ccnn1-c1cccc(Cl)c1 [Example 103, 3-[2-(3-Chloro-phenyl)-2H-pyrazol-3-yl]-1-quinolin-6-yl-1H-pyridazin-4-one]
78 | O=c1ccn(-c2ccnc(Cl)c2)nc1-c1ccnn1-c1ccccc1F [Example 63, 1-(2-Chloro-pyridin-4-yl)-3-[2-(2-fluoro-phenyl)-2H-pyrazol-3-yl]-1H-pyridazin-4-one]
120 | O=c1ccn(-c2ccc(C(F)(F)F)nc2)nc1-c1ccnn1-c1ccccc1F [Example 75, 3-[2-(2-Fluoro-phenyl)-2H-pyrazol-3-yl]-1-(6-trifluoromethyl-pyridin-3-yl)-1H-pyridazin-4-one]
8100 | O=c1ccn(-c2ccncc2)nc1-c1ccnn1-c1cccc(Cl)n1 [Example 1, 3-[2-(6-Chloro-pyridin-2-yl)-2H-pyrazol-3-yl]-1-pyridin-4-yl-1H-pyridazin-4-one]
25 | Cc1cncc(-n2ccc(=O)c(-c3ccnn3-c3ccnc4ccc(F)cc34)n2)c1 [Example 48, 3-[2-(6-Fluoro-quinolin-4-yl)-2H-pyrazol-3-yl]-1-(5-methyl-pyridin-3-yl)-1H-pyridazin-4-one]
144 | O=c1ccn(-c2cncc3ccccc23)nc1-c1ccnn1-c1ccccc1F [Example 65, 3-[2-(2-Fluoro-phenyl)-2H-pyrazol-3-yl]-1-isoquinolin-4-yl-1H-pyridazin-4-one]
78 | O=c1ccn(-c2ccncc2)nc1-c1ccnn1-c1ccnc2ccc(Cl)cc12 [Example 72, 3-[2-(6-Chloro-quinolin-4-yl)-2H-pyrazol-3-yl]-1-pyridin-4-yl-1H-pyridazin-4-one]
41 | O=c1ccn(-c2ccc3cnccc3c2)nc1-c1ccnn1-c1cccc(F)c1 [Example 101, 3-[2-(3-Fluoro-phenyl)-2H-pyrazol-3-yl]-1-isoquinolin-6-yl-1H-pyridazin-4-one]
50 | O=c1ccn(-c2cccnc2)nc1-c1ccnn1-c1cccc2cnccc12 [Example 86, 3-(2-Isoquinolin-5-yl-2H-pyrazol-3-yl)-1-pyridin-3-yl-1H-pyridazin-4-one]
188 | O=c1ccn(-c2ccncc2)nc1-c1ccnn1-c1cncc2ccccc12 [Example 73, 3-(2-Isoquinolin-4-yl-2H-pyrazol-3-yl)-1-pyridin-4-yl-1H-pyridazin-4-one]
253 | O=c1ccn(-c2cncc(Cl)c2)nc1-c1ccnn1-c1ccnc2cc(Cl)ccc12 [Example 70, 1-(5-Chloro-pyridin-3-yl)-3-[2-(7-chloro-quinolin-4-yl)-2H-pyrazol-3-yl]-1H-pyridazin-4-one]
437 | Cc1cc(-n2ccc(=O)c(-c3ccnn3-c3ccc4c(c3)OCCO4)n2)ccn1 [Example 38, 3-[2-(2,3-Dihydro-benzo[1,4]dioxin-6-yl)-2H-pyrazol-3-yl]-1-(2-methyl-pyridin-4-yl)-1H-pyridazin-4-one]
107 | O=c1ccn(-c2ccc(C(F)(F)F)nc2)nc1-c1ccnn1-c1cccc2cnccc12 [Example 81, 3-(2-Isoquinolin-5-yl-2H-pyrazol-3-yl)-1-(6-trifluoromethyl-pyridin-3-yl)-1H-pyridazin-4-one]
57 | O=c1ccn(-c2ccnc(Cl)c2)nc1-c1ccnn1-c1ccnc2cc(Cl)ccc12 [Example 69, 1-(2-Chloro-pyridin-4-yl)-3-[2-(7-chloro-quinolin-4-yl)-2H-pyrazol-3-yl]-1H-pyridazin-4-one]
12 | Cc1cc(-n2ccc(=O)c(-c3ccnn3-c3ccnc4ccccc34)n2)ccn1 [Example 79, 1-(2-Methyl-pyridin-4-yl)-3-(2-quinolin-4-yl-2H-pyrazol-3-yl)-1H-pyridazin-4-one]
82 | O=c1ccn(-c2ccnc(N3CCOCC3)c2)nc1-c1ccnn1-c1ccc2c(c1)OCCO2 [Example 41, 3-[2-(2,3-Dihydro-benzo[1,4]dioxin-6-yl)-2H-pyrazol-3-yl]-1-(2-morpholin-4-yl-pyridin-4-yl)-1H-pyridazin-4-one]
154 | O=c1ccn(-c2ccnc(Cl)c2)nc1-c1ccnn1-c1ccnc2ccc(Cl)cc12 [Example 62, 1-(2-Chloro-pyridin-4-yl)-3-[2-(6-chloro-quinolin-4-yl)-2H-pyrazol-3-yl]-1H-pyridazin-4-one]
73 | O=c1ccn(-c2ccnc(C(F)(F)F)c2)nc1-c1ccnn1-c1cccc(Cl)c1 [Example 95, 3-[2-(3-Chloro-phenyl)-2H-pyrazol-3-yl]-1-(2-trifluoromethyl-pyridin-4-yl)-1H-pyridazin-4-one]
149 | Cc1cncc(-n2ccc(=O)c(-c3ccnn3-c3cccc(F)c3)n2)c1 [Example 37, 3-[2-(3-Fluoro-phenyl)-2H-pyrazol-3-yl]-1-(5-methyl-pyridin-3-yl)-1H-pyridazin-4-one]
259 | CS(=O)(=O)c1cncc(-n2ccc(=O)c(-c3ccnn3-c3cccc(F)c3)n2)c1 [Example 45, 3-[2-(3-Fluoro-phenyl)-2H-pyrazol-3-yl]-1-(5-methanesulfonyl-pyridin-3-yl)-1H-pyridazin-4-one]
220 | O=c1ccn(-c2cncc(Cl)c2)nc1-c1ccnn1-c1ccnc2ccc(Cl)cc12 [Example 61, 1-(5-Chloro-pyridin-3-yl)-3-[2-(6-chloro-quinolin-4-yl)-2H-pyrazol-3-yl]-1H-pyridazin-4-one]
220 | O=c1ccn(-c2ccnc(Cl)c2)nc1-c1ccnn1-c1cccc2cnccc12 [Example 59, 1-(2-Chloro-pyridin-4-yl)-3-(2-isoquinolin-5-yl-2H-pyrazol-3-yl)-1H-pyridazin-4-one]
219 | O=c1ccn(-c2ccncc2)nc1-c1ccnn1-c1cccc(F)c1F [Example 29, 3-[2-(2,3-Difluoro-phenyl)-2H-pyrazol-3-yl]-1-pyridin-4-yl-1H-pyridazin-4-one]
57 | O=c1ccn(-c2ccnc(O)c2)nc1-c1ccnn1-c1ccc2c(c1)OCCO2 [Example 46, 3-[2-(2,3-Dihydro-benzo[1,4]dioxin-6-yl)-2H-pyrazol-3-yl]-1-(2-hydroxy-pyridin-4-yl)-1H-pyridazin-4-one]
102 | Cc1cncc(-n2ccc(=O)c(-c3ccnn3-c3ccnc4cc(Cl)ccc34)n2)c1 [Example 82, 3-[2-(7-Chloro-quinolin-4-yl)-2H-pyrazol-3-yl]-1-(5-methyl-pyridin-3-yl)-1H-pyridazin-4-one]
32 | O=c1ccn(-c2ccncc2)nc1-c1ccnn1-c1ccnc2cc(Cl)ccc12 [Example 91, 3-[2-(7-Chloro-quinolin-4-yl)-2H-pyrazol-3-yl]-1-pyridin-4-yl-1H-pyridazin-4-one]

— patent US9187455B2, “Substituted pyridazines as PDE10A inhibitors” (Hoffmann-La Roche Inc., priority 2009, dated 2015)
